Laboratory results published in US20100022491A1, “4-HYDROXY-2-OXO-2,3-DIHYDRO-1,3-BENZOTHIAZOL-7YL COMPOUNDS FOR MODULATION OF B2-ADRENORECEPTOR ACTIVITY” (ASTRAZENECA AB, priority 2006, published 2010).
Structures can show the parent of a compound that is named as a salt.

Legend:
Adrenergic β2 = molecular target: T1, Adrenergic β2 (Homo sapiens, UniProt P07550); assay: Adrenergic β2 mediated cAMP production in H292 cells; type: cell-based; settings: for EC50: H292 cells, cAMP by AlphaScreen, 60 minutes at room temperature, rolipram 300 μM, read-out: β2 pEC50 (converted); for β2 Int Act: Intrinsic Activity as a fraction relative to the maximum activity determined for formoterol
T1 construct: Adherent H292 cells were removed from tissue culture flasks; endogenous in cells; host or cells: H292 cells
Outline: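 cAMP accumulation in adherent H292 cells, measured by AlphaScreen and calibrated with cAMP standards. Compounds incubated 60 min at room temperature after 10 min rolipram (final 300 μM; vehicle 1.6% DMSO). pEC50 and intrinsic activity, as a fraction of formoterol's maximum, from four-parameter logistic fit.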

[1] = molecular target: T2, recombinant human α1D receptor (Homo sapiens, UniProt P25100); assay: Adrenergic α1D selectivity binding assay ([3H]-prazosin); settings: inhibition of [3H]-prazosin (0.3 nM) binding, HEK293 membranes; read-out: α1 bind pIC50 (converted)
T2 construct: expressed in transfected cells; host or cells: HEK293
T2 sequence (P25100 1-572): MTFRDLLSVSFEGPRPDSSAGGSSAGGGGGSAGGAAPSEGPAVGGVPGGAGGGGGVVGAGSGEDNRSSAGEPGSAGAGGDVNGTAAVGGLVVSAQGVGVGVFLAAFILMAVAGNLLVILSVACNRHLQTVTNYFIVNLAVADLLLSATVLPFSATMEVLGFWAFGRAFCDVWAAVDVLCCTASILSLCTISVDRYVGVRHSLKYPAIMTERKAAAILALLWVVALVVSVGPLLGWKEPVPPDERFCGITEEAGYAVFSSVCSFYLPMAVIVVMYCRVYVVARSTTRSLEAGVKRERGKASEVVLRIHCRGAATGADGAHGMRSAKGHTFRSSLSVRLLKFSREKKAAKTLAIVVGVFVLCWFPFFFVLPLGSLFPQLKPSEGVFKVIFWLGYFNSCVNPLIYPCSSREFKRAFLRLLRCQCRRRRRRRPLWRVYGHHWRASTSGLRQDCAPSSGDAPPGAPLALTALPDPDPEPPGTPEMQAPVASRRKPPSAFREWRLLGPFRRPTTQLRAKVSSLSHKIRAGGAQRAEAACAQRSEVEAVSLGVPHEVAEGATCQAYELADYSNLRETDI
Outline: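 Displacement of [3H]-prazosin (0.3 nM) from recombinant human α1D receptor in HEK293-cell membranes, 2 h at room temperature, pH 7.4 HEPES/EDTA/gelatin buffer. Filtration and scintillation counting, non-specific binding set with 10 μM BMY7378; four-parameter logistic fit gives pIC50.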

T1 sequence (P07550 whole entry): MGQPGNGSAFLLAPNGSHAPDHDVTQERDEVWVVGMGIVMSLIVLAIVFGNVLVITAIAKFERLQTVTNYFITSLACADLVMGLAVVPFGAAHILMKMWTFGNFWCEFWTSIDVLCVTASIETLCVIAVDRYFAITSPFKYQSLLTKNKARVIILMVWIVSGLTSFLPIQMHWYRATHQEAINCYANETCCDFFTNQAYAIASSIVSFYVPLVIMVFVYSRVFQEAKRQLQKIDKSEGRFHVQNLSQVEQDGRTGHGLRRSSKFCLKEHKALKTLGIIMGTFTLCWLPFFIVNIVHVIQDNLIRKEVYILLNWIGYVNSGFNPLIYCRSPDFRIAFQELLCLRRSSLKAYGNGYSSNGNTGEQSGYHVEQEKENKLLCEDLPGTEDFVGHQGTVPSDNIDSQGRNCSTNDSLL

EC50 (Adrenergic β2) [nM]	β2 Int Act (Adrenergic β2)	IC50 [1] [nM]	SMILES
1.26	0.9	50.1	O=C(CCNCCc1ccc(O)c(Cl)c1)N(CCNCCc1ccc(O)c2[nH]c(=O)sc12)C1CCCCC1 [Example 89, N^3-[2-(3-chloro-4-hydroxyphenyl)ethyl]-N^1-cyclohexyl-N^1-(2-{[2-(4-hydroxy-2-oxo-2,3-dihydro-1,3-benzothiazol-7-yl)ethyl]amino}ethyl)-β-alaninamide bis-trifluoroacetic acid salt]
1	0.79	200	O=C(CCNCCc1ccccc1)N(CCNCCc1ccc(O)c2[nH]c(=O)sc12)C1CCC(F)(F)CC1 [Example 4, N-(4,4-Difluorocyclohexyl)-N-(2-{[2-(4-hydroxy-2-oxo-2,3-dihydro-1,3-benzothiazol-7-yl)ethyl]amino}ethyl)-N^3-(2-phenylethyl)-β-alaninamide bis-trifluoroacetic acid salt]
3.16	0.72	251	O=C(CCNCCc1ccc(O)c2[nH]c(=O)sc12)N(CCNCCc1ccc(O)c2[nH]c(=O)sc12)C1CCCCCC1 [Example 87, bis-trifluoroacetic acid salt]
39.8	0.43	251	COc1ccc(CCNCCC(=O)N(CCNCCc2ccc(O)c3[nH]c(=O)sc23)C2CCCCCC2)cc1OC [Example 86, N^1-Cycloheptyl-N^3-[2-(3,4-dimethoxyphenyl)ethyl]-N^1-(2-{[2-(4-hydroxy-2-oxo-2,3-dihydro-1,3-benzothiazol-7-yl)ethyl]amino}ethyl)-β-alaninamide bis-trifluoroacetic acid salt]
3.98	0.75	126	CC1(C)CCC(N(CCNCCc2ccc(O)c3[nH]c(=O)sc23)C(=O)CCNCCc2cccc(O)c2)CC1 [Example 91, N^1-(4,4-Dimethylcyclohexyl)-N^1-(2-{[2-(4-hydroxy-2-oxo-2,3-dihydro-1,3-benzothiazol-7-yl)ethyl]amino}ethyl)-N^3-[2-(3-hydroxyphenyl)ethyl]-β-alaninamide bis-trifluoroacetic acid salt]
6.31	0.65	50.1	Cc1cccc(CCNCCC(=O)N(CCNCCc2ccc(O)c3[nH]c(=O)sc23)C2CCCCCC2)c1 [Example 85, N^1-Cycloheptyl-N^1-(2-{[2-(4-hydroxy-2-oxo-2,3-dihydro-1,3-benzothiazol-7-yl)ethyl]amino}ethyl)-N^3-[2-(3-methylphenyl)ethyl]-β-alaninamide bis-trifluoroacetic acid salt]
2.51	0.83	100	O=C(CCNCCc1ccccc1)N(CCNCCc1ccc(O)c2[nH]c(=O)sc12)C1CCCCC1 [Example 5, N-Cyclohexyl-N-(2-{[2-(4-hydroxy-2-oxo-2,3-dihydro-1,3-benzothiazol-7-yl)ethyl]amino}ethyl)-N^3-(2-phenylethyl)-β-alaninamide bis-trifluoroacetic acid salt]
3.98	0.71	63.1	O=C(CCNCCc1cccc(O)c1)N(CCNCCc1ccc(O)c2[nH]c(=O)sc12)C1CCCCCCC1 [Example 90, N^1-Cyclooctyl-N^1-(2-{[2-(4-hydroxy-2-oxo-2,3-dihydro-1,3-benzothiazol-7-yl)ethyl]amino}ethyl)-N^3-[2-(3-hydroxyphenyl)ethyl]-β-alaninamide bis-trifluoroacetic acid salt]
25.1	0.37	251	O=C(CCNCCc1ccc2c(c1)OCCO2)N(CCNCCc1ccc(O)c2[nH]c(=O)sc12)C1CCCCCC1 [Example 88, N-Cycloheptyl-N^3-[2-(2,3-dihydro-1,4-benzodioxin-6-yl)ethyl]-N^1-(2-{[2-(4-hydroxy-2-oxo-2,3-dihydro-1,3-benzothiazol-7-yl)ethyl]amino}ethyl)-β-alaninamide bis-trifluoroacetic acid salt]
